Reference: ChEMBL document CHEMBL3885861, “Open TG-GATES”

Organism: Rattus norvegicus
Assay: Open TG-GATES - Regimen: Daily Repeat
Type: toxicity, organism-based, Sprague-Dawley
Design: regimen Daily Repeat, gender Male, age 6 weeks
Settings: in vivo, po, route gavage; for APTT / Bas / Eos / Fbg / Hb / Ht / Lym / MCH / MCHC / MCV / Mono / Neu / PT / Plat / RBC / Ret / WBC: tissue Blood; for KIDNEY_L / KIDNEY_R / KIDNEY_TOTAL: tissue Kidney; for LIVER: tissue Liver; for A/G / ALP / ALT / AST / BUN / CRE / Ca / Cl / DBIL / GLC / IP / K / LDH / Na / PL / RALB / TBIL / TC / TG / TP / gamma-GTP: tissue Plasma
[1] = 300 mg/kg, 72 h, dose level Middle, time 3 day
[2] = 300 mg/kg, […], dose level Middle, time 7 day
[3] = 300 mg/kg, […], dose level Middle, time 14 day
[4] = 300 mg/kg, […], dose level Middle, time 28 day
[5] = 1000 mg/kg, 72 h, dose level High, time 3 day
[6] = 1000 mg/kg, […], dose level High, time 7 day
[7] = 1000 mg/kg, […], dose level High, time 14 day
[8] = 1000 mg/kg, […], dose level High, time 28 day

CN(C)[C@@H]1C(O)=C(C(N)=O)C(=O)[C@@]2(O)C(O)=C3C(=O)c4c(O)cccc4[C@@](C)(O)[C@H]3C[C@@H]12 [TETRACYCLINE]
TERMINAL_BW [1]: 189.9 g
APTT [1]: 16.3 s
Bas [1]: 0%
Eos [1]: 0.6%
Fbg [1]: 239.2 mg/dL
Hb [1]: 13.6 g/dL
Ht [1]: 40.7%
Lym [1]: 87.4%
MCH [1]: 21.9 pg
MCHC [1]: 33.4%
MCV [1]: 65.7 fL
Mono [1]: 5.6%
Neu [1]: 6%
PT [1]: 12.3 s
Plat [1]: 99.5 x10_4/uL
RBC [1]: 620.2 x10_4/ul
Ret [1]: 5.8%
WBC [1]: 89.4 x10_2/uL
KIDNEY_L [1]: 0.9 g
KIDNEY_R [1]: 0.9 g
KIDNEY_TOTAL [1]: 1.8 g
LIVER [1]: 8.8 g
A/G [1]: 1.9
ALP [1]: 1035.4 IU/L
ALT [1]: 35.6 IU/L
AST [1]: 66.8 IU/L
BUN [1]: 16.2 mg/dL
CRE [1]: 0.6 mg/dL
Ca [1]: 10.9 mg/dL
Cl [1]: 107.2 meq/L
DBIL [1]: 0.01 mg/dL
GLC [1]: 180.6 mg/dL
IP [1]: 9.8 mg/dL
K [1]: 4.8 meq/L
LDH [1]: 122.6 IU/L
Na [1]: 141 meq/L
PL [1]: 147.2 mg/dL
RALB [1]: 3.8 g/dL
TBIL [1]: 0.3 mg/dL
TC [1]: 93.6 mg/dL
TG [1]: 42.6 mg/dL
TP [1]: 5.8 g/dL
gamma-GTP [1]: 1.6 IU/L
TERMINAL_BW [2]: 227.9 g
TERMINAL_BW [3]: 275.6 g
TERMINAL_BW [4]: 341 g
APTT [2]: 17.9 s
Bas [2]: 0%
Eos [2]: 1%
Fbg [2]: 238.5 mg/dL
Hb [2]: 13.9 g/dL
Ht [2]: 41.5%
Lym [2]: 85%
MCH [2]: 21 pg
MCHC [2]: 33.4%
MCV [2]: 62.9 fL
Mono [2]: 7%
Neu [2]: 7.2%
PT [2]: 12.1 s
Plat [2]: 102 x10_4/uL
RBC [2]: 660.2 x10_4/ul
Ret [2]: 7.2%
WBC [2]: 135.8 x10_2/uL
APTT [3]: 16.7 s
Bas [3]: 0%
Eos [3]: 0.6%
Fbg [3]: 224 mg/dL
Hb [3]: 14 g/dL
Ht [3]: 42.2%
Lym [3]: 88.8%
MCH [3]: 20.3 pg
MCHC [3]: 33.3%
MCV [3]: 60.8 fL
Mono [3]: 4.8%
Neu [3]: 5.8%
PT [3]: 11.9 s
Plat [3]: 101.9 x10_4/uL
RBC [3]: 694 x10_4/ul
Ret [3]: 5.3%
WBC [3]: 135.4 x10_2/uL
APTT [4]: 16.5 s
Bas [4]: 0%
Eos [4]: 1%
Fbg [4]: 222.6 mg/dL
Hb [4]: 14.6 g/dL
Ht [4]: 43.4%
Lym [4]: 89.4%
MCH [4]: 19 pg
MCHC [4]: 33.6%
MCV [4]: 56.6 fL
Mono [4]: 3%
Neu [4]: 7%
PT [4]: 11.8 s
Plat [4]: 94.9 x10_4/uL
RBC [4]: 766.8 x10_4/ul
Ret [4]: 2.7%
WBC [4]: 147 x10_2/uL
KIDNEY_L [2]: 1 g
KIDNEY_R [2]: 1 g
KIDNEY_TOTAL [2]: 2 g
KIDNEY_L [3]: 1.1 g
KIDNEY_R [3]: 1.1 g
KIDNEY_TOTAL [3]: 2.2 g
KIDNEY_L [4]: 1.3 g
KIDNEY_R [4]: 1.2 g
KIDNEY_TOTAL [4]: 2.5 g
LIVER [2]: 10.8 g
LIVER [3]: 11.8 g
LIVER [4]: 13.2 g
A/G [2]: 2
ALP [2]: 1076.4 IU/L
ALT [2]: 38.2 IU/L
AST [2]: 69 IU/L
BUN [2]: 20.2 mg/dL
CRE [2]: 0.6 mg/dL
Ca [2]: 11.2 mg/dL
Cl [2]: 106.6 meq/L
DBIL [2]: 0.004 mg/dL
GLC [2]: 176 mg/dL
IP [2]: 9.6 mg/dL
K [2]: 5.5 meq/L
LDH [2]: 142 IU/L
Na [2]: 140.4 meq/L
PL [2]: 157.6 mg/dL
RALB [2]: 3.9 g/dL
TBIL [2]: 0.3 mg/dL
TC [2]: 82.6 mg/dL
TG [2]: 87.6 mg/dL
TP [2]: 5.9 g/dL
gamma-GTP [2]: 1 IU/L
A/G [3]: 2
ALP [3]: 1009.2 IU/L
ALT [3]: 36.8 IU/L
AST [3]: 61.6 IU/L
BUN [3]: 20.8 mg/dL
CRE [3]: 0.5 mg/dL
Ca [3]: 11.1 mg/dL
Cl [3]: 103.8 meq/L
DBIL [3]: 0.006 mg/dL
GLC [3]: 178.2 mg/dL
IP [3]: 8.6 mg/dL
K [3]: 4.8 meq/L
LDH [3]: 88.6 IU/L
Na [3]: 142.4 meq/L
PL [3]: 157 mg/dL
RALB [3]: 3.9 g/dL
TBIL [3]: 0.3 mg/dL
TC [3]: 72.4 mg/dL
TG [3]: 111.4 mg/dL
TP [3]: 6 g/dL
gamma-GTP [3]: 1.2 IU/L
A/G [4]: 1.8
ALP [4]: 813.4 IU/L
ALT [4]: 29 IU/L
AST [4]: 62.4 IU/L
BUN [4]: 19.4 mg/dL
CRE [4]: 0.6 mg/dL
Ca [4]: 10.9 mg/dL
Cl [4]: 107 meq/L
DBIL [4]: 0.026 mg/dL
GLC [4]: 173.2 mg/dL
IP [4]: 7.4 mg/dL
K [4]: 4.2 meq/L
LDH [4]: 73.8 IU/L
Na [4]: 141 meq/L
PL [4]: 146 mg/dL
RALB [4]: 3.8 g/dL
TBIL [4]: 0.3 mg/dL
TC [4]: 75.2 mg/dL
TG [4]: 127 mg/dL
TP [4]: 6 g/dL
gamma-GTP [4]: 1 IU/L
TERMINAL_BW [5]: 196.1 g
APTT [5]: 16.3 s
Bas [5]: 0%
Eos [5]: 1.2%
Fbg [5]: 220.4 mg/dL
Hb [5]: 13.2 g/dL
Ht [5]: 39.6%
Lym [5]: 87.6%
MCH [5]: 21.2 pg
MCHC [5]: 33.2%
MCV [5]: 63.8 fL
Mono [5]: 4.6%
Neu [5]: 6.6%
PT [5]: 12.3 s
Plat [5]: 111.2 x10_4/uL
RBC [5]: 621.8 x10_4/ul
Ret [5]: 5.2%
WBC [5]: 98.6 x10_2/uL
KIDNEY_L [5]: 0.9 g
KIDNEY_R [5]: 0.9 g
KIDNEY_TOTAL [5]: 1.8 g
LIVER [5]: 8.4 g
A/G [5]: 2.2
ALP [5]: 1151 IU/L
ALT [5]: 37.8 IU/L
AST [5]: 72.2 IU/L
BUN [5]: 17.2 mg/dL
CRE [5]: 0.5 mg/dL
Ca [5]: 10.8 mg/dL
Cl [5]: 105.8 meq/L
DBIL [5]: 0.006 mg/dL
GLC [5]: 181 mg/dL
IP [5]: 9 mg/dL
K [5]: 4.6 meq/L
LDH [5]: 144.4 IU/L
Na [5]: 140.8 meq/L
PL [5]: 143.2 mg/dL
RALB [5]: 3.8 g/dL
TBIL [5]: 0.3 mg/dL
TC [5]: 85.8 mg/dL
TG [5]: 40.4 mg/dL
TP [5]: 5.5 g/dL
gamma-GTP [5]: 1.8 IU/L
TERMINAL_BW [6]: 225.1 g
TERMINAL_BW [7]: 289.3 g
TERMINAL_BW [8]: 356 g
APTT [6]: 16 s
Bas [6]: 0%
Eos [6]: 1.2%
Fbg [6]: 220.8 mg/dL
Hb [6]: 13.3 g/dL
Ht [6]: 39.5%
Lym [6]: 86.6%
MCH [6]: 20.8 pg
MCHC [6]: 33.6%
MCV [6]: 61.7 fL
Mono [6]: 5.8%
Neu [6]: 6.8%
PT [6]: 12.3 s
Plat [6]: 115 x10_4/uL
RBC [6]: 639.8 x10_4/ul
Ret [6]: 6.4%
WBC [6]: 124.1 x10_2/uL
APTT [7]: 16.2 s
Bas [7]: 0%
Eos [7]: 1%
Fbg [7]: 225.4 mg/dL
Hb [7]: 13.5 g/dL
Ht [7]: 40.9%
Lym [7]: 91.2%
MCH [7]: 20.6 pg
MCHC [7]: 33%
MCV [7]: 62.5 fL
Mono [7]: 2.6%
Neu [7]: 5.4%
PT [7]: 11.9 s
Plat [7]: 109.6 x10_4/uL
RBC [7]: 656 x10_4/ul
Ret [7]: 6.7%
WBC [7]: 146 x10_2/uL
APTT [8]: 16.6 s
Bas [8]: 0%
Eos [8]: 1%
Fbg [8]: 233.6 mg/dL
Hb [8]: 14.4 g/dL
Ht [8]: 43.2%
Lym [8]: 86.8%
MCH [8]: 19 pg
MCHC [8]: 33.4%
MCV [8]: 56.9 fL
Mono [8]: 3.6%
Neu [8]: 8.6%
PT [8]: 11.8 s
Plat [8]: 95 x10_4/uL
RBC [8]: 761.4 x10_4/ul
Ret [8]: 2.9%
WBC [8]: 154.2 x10_2/uL
KIDNEY_L [6]: 1 g
KIDNEY_R [6]: 1 g
KIDNEY_TOTAL [6]: 1.9 g
KIDNEY_L [7]: 1.1 g
KIDNEY_R [7]: 1.2 g
KIDNEY_TOTAL [7]: 2.3 g
KIDNEY_L [8]: 1.3 g
KIDNEY_R [8]: 1.2 g
KIDNEY_TOTAL [8]: 2.5 g
LIVER [6]: 9.5 g
LIVER [7]: 11.9 g
LIVER [8]: 12.2 g
A/G [6]: 2.1
ALP [6]: 1114.8 IU/L
ALT [6]: 36.6 IU/L
AST [6]: 72 IU/L
BUN [6]: 17 mg/dL
CRE [6]: 0.5 mg/dL
Ca [6]: 11.1 mg/dL
Cl [6]: 106.2 meq/L
DBIL [6]: 0.008 mg/dL
GLC [6]: 179.6 mg/dL
IP [6]: 9 mg/dL
K [6]: 5.2 meq/L
LDH [6]: 116.4 IU/L
Na [6]: 140.4 meq/L
PL [6]: 139 mg/dL
RALB [6]: 3.8 g/dL
TBIL [6]: 0.2 mg/dL
TC [6]: 74 mg/dL
TG [6]: 56.2 mg/dL
TP [6]: 5.6 g/dL
gamma-GTP [6]: 1.2 IU/L
A/G [7]: 2
ALP [7]: 1024 IU/L
ALT [7]: 33.8 IU/L
AST [7]: 64.8 IU/L
BUN [7]: 20.2 mg/dL
CRE [7]: 0.6 mg/dL
Ca [7]: 11.3 mg/dL
Cl [7]: 104 meq/L
DBIL [7]: 0.074 mg/dL
GLC [7]: 176 mg/dL
IP [7]: 9.2 mg/dL
K [7]: 4.9 meq/L
LDH [7]: 156.6 IU/L
Na [7]: 143 meq/L
PL [7]: 168.8 mg/dL
RALB [7]: 3.9 g/dL
TBIL [7]: 0.3 mg/dL
TC [7]: 89.2 mg/dL
TG [7]: 84.2 mg/dL
TP [7]: 5.9 g/dL
gamma-GTP [7]: 2 IU/L
A/G [8]: 1.8
ALP [8]: 773.6 IU/L
ALT [8]: 35.2 IU/L
AST [8]: 71.8 IU/L
BUN [8]: 19.2 mg/dL
CRE [8]: 0.6 mg/dL
Ca [8]: 11.1 mg/dL
Cl [8]: 106 meq/L
DBIL [8]: 0.024 mg/dL
GLC [8]: 168.8 mg/dL
IP [8]: 7.6 mg/dL
K [8]: 4.4 meq/L
LDH [8]: 143.6 IU/L
Na [8]: 142 meq/L
PL [8]: 140.4 mg/dL
RALB [8]: 3.6 g/dL
TBIL [8]: 0.3 mg/dL
TC [8]: 77.6 mg/dL
TG [8]: 73.8 mg/dL
TP [8]: 5.7 g/dL
gamma-GTP [8]: 1.6 IU/L
